Measured values from patent US20150216975A1, “NANOVECTOR BASED DRUG DELIVERY SYSTEM FOR OVERCOMING DRUG RESISTANCE” (WILLIAM MARSH RICE UNIVERSITY, priority 2012, published 2015).

How the values were obtained:
[1] = test system: xenobiotic pumps in human primary GBM cells; assay: Retention of xenobiotic pump dye substrates (Rh123, BCECF, Hoe) in GBM cells (FIG. 1, 2A, 2F); format: cell-based; conditions: for retention of dyes (Rh123, BCECF, Hoe): human GBM cells, ninety minutes, 20 μM Fumitremorgin C, 200 μM Indomethacin; for dye retention, pump inhibitor loaded on PEG-HCC targeted by IL-13R IgGs / dye retention, chemotherapeutic drug alone / dye accumulation in drug and inhibitor combinations: GBM cells; for dye retention, pump inhibitor loaded on PEG-HCC targeted by IL-13R IgGs: Il-13RAB/Inhibitor/PEG-HCC (FIG. 2A, 2F); for dye retention, chemotherapeutic drug alone / dye accumulation in drug and inhibitor combinations: 24 hours; for dye retention, chemotherapeutic drug alone: 100 nM as GFAPAB/Drug/PEG-HCC; for dye accumulation in drug and inhibitor combinations: 100 nM drug and 2 μM inhibitor on targeted PEG-HCC (FIG. 2A)
Description: Applicants investigated the ability of human primary glioma cells to retain dyes in the absence and presence of known drug pump inhibitors. […] After ninety minutes, the cells were fixed using ice-cold 2% paraformaldehyde. The fixed cells were stored overnight in a refrigerator. The cells were then washed three times in phosphate buffered saline at pH 7.4 (PBS) and imaged in a fluorescence microscope.
In this experiment, PEG-HCCs were loaded with Halo, Sulfinpyrazone (Sulf) or Indo. The same methodologies outlined above were used. The constructs were then targeted to GBM cells by IL-13R IgGs.
(§1) The drugs (Vin and Doc) were delivered to a final concentration of 100 nM in the form of GFAPAB/Drug/PEG-HCC. In some experiments, pump inhibitors Haloperidol (Halo) and Indomethacin (Indo) were added at a final concentration of 2 μM in the form of Il-13RAB/Inhibitor/PEG-HCC. Controls consisting of unloaded PEG-HCC, drug/inhibitor loaded PEG-HCC, GFAPAB, or saline were also used. Cells were treated for 24 hours with GFAPAB/Drug/PEG-HCC and/or Il-13RAB/Halo/PEG-HCC. Next, the cells were incubated for 1 hour with Rh123, BCECF-AM and Hoe, as previously described. Cells were then imaged at ×30 magnification using filters for Rh123, BCECF and Hoe.

GBM cells (BT111 cells) = assay: Toxicity of Doc/Vin and Halo/Indo delivered as peptidyl-PEG-HCC in GBM cells, living cell numbers (FIG. 12); format: cell-based, human; conditions: gliomal cells, 24 hours, 50 nM drug; for toxicity in the presence of both pump inhibitors (Halo and Indo): 1 μM Halo and Indo as peptidyl-PEG-HCC; for toxicity on co-incubation with Halo: 1 μM Halo as peptidyl-PEG-HCC (YRWYGYTPQNVI)
Experimental: (§2) In all cases, living cell numbers were calculated at n=6 individual wells and assayed using Hoe. Cells were incubated for 24 hours with Doc or Vin and targeted to the cell surface with peptidyl-PEG-HCC. The targeting peptidyl sequence was DFKLFAVTIKYR, which targets Intigrins αvβ3 and α5β. FIGS. 12B-12C provide data illustrating that drug pump inhibitors Halo and Indo potentiate the effects of Vin and Doc on GBM and breast cancer cells. Cells were incubated with PEG-HCC (control), 50 nM Doc or Vin, or Doc and Vin as peptidyl-PEG-HCC (using DFKLFAVTIKYR targeting Intigrins αvβ3 and α5β). Additionally, these four incubants were treated with PEG-HCC (control), 1 μM Halo or Indo, or Halo and Indo as peptidyl-PEG-HCC (using YRWYGYTPQNVI targeting EGFR).

[2] = test system: HER2-neu+ breast cancer cells; assay: Total cell protein of breast cancer cells after antibody-guided PEG-HCC drugs and pump inhibitors (FIG. 4B); format: cell-based, human; conditions: 24 hours
Experimental: (§3) Applicants also investigated whether the potentiation of Vin and Doc toxicity (by Halo and Indo) was applicable to other cancer types. Applicants obtained human breast and cervical cancer cells from the ATCC and grew them in 96 well format.
(§4) In a pair of 96-well plates, confluent cancer cells were treated with 1 μM (Indo or Halo)/PEG-HCC and/or 1 μM (Doc or Vin)/PEG-HCC. The inhibitors were guided to the cell surface using anti-HER2 antibodies. The chemotherapeutics were guided using EGFR antibodies. After incubation for 24 hours, one plate was used to measure total cell protein, and the other was used in dye labeling studies (as described above). This was done for both HER2-neu+ breast and HER2-neu+ cervical cancer cells (where HER2-neu is human epidermal growth factor receptor-2).
100 nM Doc delivered using EGFR IgG yielded 51% of the control, whereas 100 nM Vin yielded 65% of the control. Halo increased the toxicity of Doc, thereby lowering the total protein to 30% of the control. […] In the panels of FIG. 4D, the dye retention of these breast cancer cells is shown under the same conditions. All four compounds cause a significant brightening of the cells. The inhibitor and chemotherapeutic combination panels also indicate that dye retention is potentiated in all four combinations/permutations.

[3] = test system: human breast cancer cells; assay: Toxicity of Doc/Vin and Halo/Indo delivered as peptidyl-PEG-HCC in breast cancer cells (FIG. 12); format: cell-based; conditions: 50 nM drug; for potentiation of toxicity by Indo: 1 μM Indo as peptidyl-PEG-HCC
Experimental: as §2

[4] = test system: HER2-neu+ cervical cancer cells; assay: Total cell protein of cervical cancer cells after antibody-guided PEG-HCC drugs and pump inhibitors (FIG. 4A); format: cell-based, human; conditions: 24 hours
Experimental: as §3, §4
100 nM Doc delivered using EGFR IgG yielded 78% of the control, whereas 100 nM Vin yielded 87% of the control. Halo increased the toxicity of Doc, lowering the total protein to 25% of the control. […] Indo increased the toxicity of Doc slightly (from 78% to 68%) and Vin greatly (from 87% to 36%). In the panels of FIG. 4C, the dye retention of these cervical cancer cells is shown under the same conditions. All four compounds cause a significant brightening of the cells.

[5] = test system: glioblastoma cells grown in culture; assay: Living and dead GBM cell counts after Drug/PEG-HCC with or without Halo (FIG. 2B-2E); format: cell-based, human; conditions: for dead cell numbers when Halo is used in conjunction: 24 hours, drug/PEG-HCC with Halo (FIG. 2C)
Experimental: as §1
Furthermore, it is shown in FIG. 2C that the dead cell numbers are elevated when Halo is used in conjunction with both Vin and Doc.
FIGS. 2D-2E show additional data relating to Halo-mediated potentiation of Vin, Doc and SN38 toxicity in HADES compositions.

GBM cells = assay: Potentiation of Vin or Doc toxicity in GBM cells by targeted vs untargeted Halo or Indo via IgG/PEG-HCC delivery, cell numbers (FIG. 3); format: cell-based, human; conditions: for cell number (% of control): 24 hours; for increase of toxicity by pump inhibition by Halo (targeted vs untargeted, untargeted averaged to 100%) / increase of toxicity by pump inhibition by Indo (targeted vs untargeted, untargeted averaged to 100%): FIG. 3B
Experimental: To confirm the potentiation effect of chemotherapeutic agents and pump inhibitors, Applicants performed a similar experiment to that shown in FIG. 2. In these experiments, Applicants examined the effects of both inhibitors on both chemotherapeutics. Applicants also inverted the targeting antibodies by utilizing GFAPAB/(Indo or Halo)/PEG-HCC and Il-13RAB/(Doc or Vin)/PEG-HCC. 2 μM Halo/PEG-HCC and Indo/PEG-HCC without antibody targeting were used as controls, which were added with and without 100 nM Vin or Doc as Il-13RAB/Drug/PEG-HCC.
200 nM Il-13RAB/Doc/PEG-HCC caused a drop in cell number to 75% and to 72% (the level seen in the controls) in the presence of (untargeted) Halo/PEG-HCC and Indo/PEG-HCC, respectively. However, targeting of Halo caused a large change in Doc toxicity. The inclusion of an antibody with Halo/PEG-HCC changed the toxicity from 75% to 37%. The inclusion of an antibody with Indo/PEG-HCC changed the Doc toxicity from 72% to 50%.
Vin toxicity was also potentiated in the presence of targeted xenobiotic pump inhibitors. Furthermore, the targeting of Halo dropped the cell numbers from 45% (control number, untargeted) to 27% (targeted). […] However, when Indo was targeted to the GBM cells, this dropped to only 14%. […] Only the potentiating effect is shown, comparing targeted and untargeted xenobiotic pump inhibitors, so that the cell numbers in the presence of untargeted pump inhibitor are averaged to 100%.

[6] = 100 nM drug delivered using EGFR IgG, no pump inhibitor
[7] = drug via EGFR IgG plus Indo/PEG-HCC guided by anti-HER2
[8] = drug via EGFR IgG plus Halo/PEG-HCC guided by anti-HER2

Compound	retention of dyes (Rh123, BCECF, Hoe) [1]	dye retention, pump inhibitor loaded on PEG-HCC targeted by IL-13R IgGs [1]	toxicity in the presence of both pump inhibitors (Halo and Indo) (GBM cells (BT111 cells))	toxicity on co-incubation with Halo (GBM cells (BT111 cells))	total cell protein (% of the control) [2, 6] [%]	total cell protein (% of the control) [2, 7] [%]	dye retention, chemotherapeutic drug alone [1]	dye accumulation in drug and inhibitor combinations [1]	potentiation of toxicity by Indo [3]	total cell protein (% of the control) [4, 6] [%]	total cell protein (% of the control) [4, 7] [%]	dead cell numbers when Halo is used in conjunction [5]	increase of toxicity by pump inhibition by Halo (targeted vs untargeted, untargeted averaged to 100%) (GBM cells)	increase of toxicity by pump inhibition by Indo (targeted vs untargeted, untargeted averaged to 100%) (GBM cells) [%]	further results
COc1ccc2c3c([nH]c2c1)[C@H](C=C(C)C)N1C(=O)[C@@H]2CCCN2C(=O)[C@@H]1C3 [Fumitremorgin C]	increase dye retention of all dyes	–	–	–	–	–	–	–	–	–	–	–	–	–	–
COc1ccc2c(c1)c(CC(=O)O)c(C)n2C(=O)c1ccc(Cl)cc1 [Indo, Indomethacin]	increase dye retention of all dyes	same experimental results were obtained	–	–	–	–	–	–	–	–	–	–	–	–	–
CC[C@]1(O)C[C@@H]2CN(CCc3c([nH]c4ccccc34)[C@@](C(=O)OC)(c3cc4c(cc3OC)N(C)[C@H]3[C@@](O)(C(=O)OC)[C@H](OC(C)=O)[C@]5(CC)C=CCN6CC[C@]43[C@@H]65)C2)C1 [Vin, vinblastine]	–	–	did not lead to a greater level of toxicity than Indo alone	moderately enhanced	65	33	differentially increase dye retention	synergistic effect in dye accumulation	potentiated	87	36	elevated	approximately 50%	70	toxicity in the presence of Indo (GBM cells (BT111 cells); 1 μM Indo as peptidyl-PEG-HCC (YRWYGYTPQNVI)): more than doubled; effect of Halo on toxicity (in words) [2]: no potentiating effect; effect of Halo on toxicity (in words) [4]: slight effect; cell number (% of control) (GBM cells; drug as Il-13RAB/Drug/PEG-HCC with antibody-targeted Halo/PEG-HCC (GFAPAB)): 27%; cell number (% of control) (GBM cells; drug as Il-13RAB/Drug/PEG-HCC with antibody-targeted Indo/PEG-HCC (GFAPAB)): 14%
CC(=O)O[C@@]12CO[C@@H]1C[C@H](O)[C@@]1(C)C(=O)[C@H](O)C3=C(C)[C@@H](OC(=O)[C@H](O)[C@@H](NC(=O)OC(C)(C)C)c4ccccc4)C[C@@](O)([C@@H](OC(=O)c4ccccc4)[C@H]21)C3(C)C [Doc, docetaxel]	–	–	greater level of toxicity than Halo or Indo alone	more enhanced by co-incubation with Halo	51	68	differentially increase dye retention	synergistic effect in dye accumulation	potentiated	78	68	elevated	approximately 50%	40	total cell protein (% of the control) [2, 8]: 30%; toxicity with both pump inhibitors (Halo and Indo) ([3]; 1 μM Halo and Indo as peptidyl-PEG-HCC): greatly by both on combination; potentiation of toxicity by Halo ([3]; 1 μM Halo as peptidyl-PEG-HCC): potentiated; total cell protein (% of the control) [4, 8]: 25%
CCc1c2c(nc3ccc(O)cc13)-c1cc3c(c(=O)n1C2)COC(=O)[C@]3(O)CC [SN-38]	–	–	–	–	–	–	–	–	–	–	–	–	–	–	effect of Halo on toxicity in HADES compositions ([5]; FIGS. 2D-2E): minimally affected
O=C(CCCN1CCC(O)(c2ccc(Cl)cc2)CC1)c1ccc(F)cc1 [Halo, Haloperidol]	–	same experimental results were obtained	–	–	–	–	–	–	–	–	–	–	–	–	–
